Source: US10703756B2, “Pyrrolo[2,3-D]pyrimidinyl, pyrrolo[2,3-B]pyrazinyl, pyrrolo[2,3-B]pyridinyl acrylamides and epoxides thereof” (Pfizer Inc., priority 2015, dated 2020)

Tests used:
[1] = tested on: IL-15 induced STAT5 phosphorylation in human whole blood lymphocytes; assay: HWB IL-15 Induced STAT5 Phosphorylation Assay; assay type: cell-based; conditions: Lymphocyte, IL-15 final 50 ng/ml, read-out: HWB_IL15 pSTAT5 IC50
Outline: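 Heparinised human whole blood preincubated with compound (0.2% DMSO final) 45 min at 37° C, then stimulated with human IL-15 (50 ng/ml final) for 15 min. After lyse/fix and Perm Buffer III permeabilisation, stained overnight at 4° C with AlexaFluor647 anti-phospho-STAT5; read by flow cytometry gated on total lymphocytes.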

JAK3 enzyme [2] = molecular target: T1, JAK3 enzyme (Homo sapiens, UniProt P52333); assay: JAK Caliper Enzyme Assay at 1 mM ATP; assay type: biochemical
T1 sequence (P52333 1-1124): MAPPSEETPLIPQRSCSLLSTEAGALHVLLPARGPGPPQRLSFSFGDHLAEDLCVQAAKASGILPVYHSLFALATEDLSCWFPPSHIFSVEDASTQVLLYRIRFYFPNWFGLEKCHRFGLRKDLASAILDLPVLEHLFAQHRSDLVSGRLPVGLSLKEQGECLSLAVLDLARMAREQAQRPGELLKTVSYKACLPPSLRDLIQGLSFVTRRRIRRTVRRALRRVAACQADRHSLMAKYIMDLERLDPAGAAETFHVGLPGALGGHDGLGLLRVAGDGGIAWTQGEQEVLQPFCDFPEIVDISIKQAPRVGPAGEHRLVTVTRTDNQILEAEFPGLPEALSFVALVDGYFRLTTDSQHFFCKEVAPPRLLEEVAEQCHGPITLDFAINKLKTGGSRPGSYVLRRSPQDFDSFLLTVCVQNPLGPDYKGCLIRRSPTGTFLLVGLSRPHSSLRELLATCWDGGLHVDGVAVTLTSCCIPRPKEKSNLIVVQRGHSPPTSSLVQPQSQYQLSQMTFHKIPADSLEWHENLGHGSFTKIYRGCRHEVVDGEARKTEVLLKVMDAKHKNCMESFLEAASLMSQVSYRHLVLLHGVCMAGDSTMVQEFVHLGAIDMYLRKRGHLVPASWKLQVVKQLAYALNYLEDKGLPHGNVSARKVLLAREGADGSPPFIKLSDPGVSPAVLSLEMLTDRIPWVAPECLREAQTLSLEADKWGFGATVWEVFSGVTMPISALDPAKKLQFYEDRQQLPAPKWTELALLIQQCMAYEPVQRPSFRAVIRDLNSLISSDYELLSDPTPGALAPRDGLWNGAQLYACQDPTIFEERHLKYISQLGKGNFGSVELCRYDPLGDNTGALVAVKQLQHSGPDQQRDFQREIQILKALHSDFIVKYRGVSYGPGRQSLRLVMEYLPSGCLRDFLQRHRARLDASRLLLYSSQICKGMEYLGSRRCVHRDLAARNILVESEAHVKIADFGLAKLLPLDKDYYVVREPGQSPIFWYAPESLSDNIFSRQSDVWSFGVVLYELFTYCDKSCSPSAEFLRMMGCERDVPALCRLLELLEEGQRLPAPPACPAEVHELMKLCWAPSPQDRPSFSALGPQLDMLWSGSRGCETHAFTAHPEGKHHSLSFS
Outline: (§1)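 Substrate conversion was kept within 20%-30% by adjusting enzyme and incubation for every preparation; peptide phosphorylation was quantified via on-chip mobility shift.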

JAK3 enzyme [3] = molecular target: T1, JAK3 enzyme; assay: JAK Caliper Enzyme Assay at 4 μM ATP; assay type: biochemical
Outline: as §1

[4] = Stability of JAK3 Covalent Inhibitors in Human Whole Blood; assay type: in vitro ADME; conditions: both sexes, 1 μM test compound, 37° C., 180 min incubation, read-out: Human blood stability t1/2
Outline: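 Parent remaining versus time was derived from LC-MS/MS peak area ratios to internal standard after acetonitrile quench. Incubations ran for 180 min at 37° C, in duplicate, with 1 μM test compound in pooled K2-EDTA human blood (two healthy donors).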

| SMILES | IC50 [1] [nM] | IC50 (JAK3 enzyme [2]) [nM] | IC50 (JAK3 enzyme [3]) [nM] | half-life at 1 μM [4] [h] |
| --- | --- | --- | --- | --- |
| C=CC(=O)N1C[C@H](CN2CC[C@H](C#N)C2)C[C@H](Nc2ncnc3[nH]ccc23)C1 [Example 108, (S)-1-(((3S,5S)-5-((7H-pyrrolo[2,3-d]pyrimidin-4-yl)amino)-1-acryloylpiperidin-3-yl)methyl)pyrrolidine-3-carbonitrile] | 3480 | 136 | 0.769 | 2.23 |
| C=CC(=O)N1CCN(c2cnc3[nH]cc(C(=O)N[C@H]4CCO[C@H]4C)c3n2)CC1(C)C [Example 166, 3-({[2-(4-acryloyl-3,3-dimethylpiperazin-1-yl)-5H-pyrrolo[2,3-b]pyrazin-7-yl]carbonyl}amino)-2,5-anhydro-1,3,4-trideoxy-L-threo-pentitol] | 1210 | 58 | 0.667 | > 6 |
| C=CC(=O)N1CCC(Nc2cnc3[nH]cc(C(=O)NCC4CC4)c3n2)CC1 [Example 172, 2-[(1-acryloylpiperidin-4-yl)amino]-N-(cyclopropylmethyl)-5H-pyrrolo[2,3-b]pyrazine-7-carboxamide] | 322 | 5 | 0.448 | 5.43 |
| C=CC(=O)N1CCC(Nc2cnc3[nH]cc(C(=O)NCc4cccc(F)c4)c3n2)CC1 [Example 176, 2-[(1-acryloylpiperidin-4-yl)amino]-N-(3-fluorobenzyl)-5H-pyrrolo[2,3-b]pyrazine-7-carboxamide] | 318 | 3 | 0.437 | 4.85 |
| C=CC(=O)N1CCC(Nc2cnc3[nH]cc(C(=O)NCCC4CC4)c3n2)CC1 [Example 178, 2-[(1-acryloylpiperidin-4-yl)amino]-N-(2-cyclopropylethyl)-5H-pyrrolo[2,3-b]pyrazine-7-carboxamide] | 360 | 6 | 0.442 | 5.57 |
| C=CC(=O)N1CCC(Nc2cnc3[nH]cc(C(=O)NCc4ccccc4)c3n2)CC1 [Example 187, 2-[(1-acryloylpiperidin-4-yl)amino]-N-benzyl-5H-pyrrolo[2,3-b]pyrazine-7-carboxamide] | 240 | 6 | 0.503 | > 6 |
| C=CC(=O)N1CCC(Nc2cnc3[nH]cc(C(=O)NCc4ccc(F)cc4)c3n2)CC1 [Example 188, 2-[(1-acryloylpiperidin-4-yl)amino]-N-(4-fluorobenzyl)-5H-pyrrolo[2,3-b]pyrazine-7-carboxamide] | 913 | 6 | 0.515 | > 6 |
| C=CC(=O)N1CCC(Nc2cnc3[nH]cc(C(=O)NCc4ccc(F)c(C#N)c4)c3n2)CC1 [Example 189, 2-[(1-acryloylpiperidin-4-yl)amino]-N-(3-cyano-4-fluorobenzyl)-5H-pyrrolo[2,3-b]pyrazine-7-carboxamide] | 1140 | 6 | 0.689 | > 6 |
| C=CC(=O)N1CCC(Nc2cnc3[nH]cc(C(=O)NCc4ccccc4F)c3n2)CC1 [Example 196, 2-[(1-acryloylpiperidin-4-yl)amino]-N-(2-fluorobenzyl)-5H-pyrrolo[2,3-b]pyrazine-7-carboxamide] | 362 | 5 | 0.479 | > 6 |
| C=CC(=O)N1CCC(Oc2cnc3[nH]cc(C(=O)NC45CC(C4)C5)c3n2)CC1 [Example 200, 2-[(1-acryloylpiperidin-4-yl)oxy]-N-(bicyclo[1.1.1]pent-1-yl)-5H-pyrrolo[2,3-b]pyrazine-7-carboxamide] | 1520 | 46 | 0.411 | > 6 |
| C=CC(=O)N1CCC(Oc2cnc3[nH]cc(C(=O)N[C@@H](C)CC)c3n2)CC1 [Example 205, 2-[(1-acryloylpiperidin-4-yl)oxy]-N-[(2S)-butan-2-yl]-5H-pyrrolo[2,3-b]pyrazine-7-carboxamide] | 513 | 16 | 0.138 | 4.17 |
| C=CC(=O)N1CCC(Oc2cnc3[nH]cc(C(=O)NC(C)(C)CC)c3n2)CC1 [Example 209, 2-[(1-acryloylpiperidin-4-yl)oxy]-N-(2-methylbutan-2-yl)-5H-pyrrolo[2,3-b]pyrazine-7-carboxamide] | > 10000 | 64 | 0.609 | 4.45 |

Second part, the compound after the results:

| IC50 [1] [nM] | IC50 (JAK3 enzyme [2]) [nM] | IC50 (JAK3 enzyme [3]) [nM] | half-life at 1 μM [4] [h] | SMILES |
| --- | --- | --- | --- | --- |
| 195 | 20 | 0.209 | 4.79 | C=CC(=O)N1CCC(Oc2cnc3[nH]cc(C(=O)N[C@H](C)COC)c3n2)CC1 [Example 214, 2-[(1-acryloylpiperidin-4-yl)oxy]-N-[(2R)-1-methoxypropan-2-yl]-5H-pyrrolo[2,3-b]pyrazine-7-carboxamide] |
| 889 | 25 | 0.363 | 4.05 | C=CC(=O)N1CCC(Oc2cnc3[nH]cc(C(=O)NC4CCCC4(F)F)c3n2)CC1 (stereo not drawn) [Example 219, 2-[(1-acryloylpiperidin-4-yl)oxy]-N-(2,2-difluorocyclopentyl)-5H-pyrrolo[2,3-b)pyrazine-7-carboxamide] |
| 772 | 25 | 0.233 | 3.93 | C=CC(=O)N1CCC(Oc2cnc3[nH]cc(C(=O)N[C@H]4CC[C@@H](F)C4)c3n2)CC1 [Example 225, 2-[(1-acryloylpiperidin-4-yl)oxy]-N-[(1S,3R)-3-fluorocyclopentyl]-5H-pyrrolo[2,3-b]pyrazine-7-carboxamide] |
| 682 | 22 | 0.279 | 4.5 | C=CC(=O)N1CCC(Oc2cnc3[nH]cc(C(=O)N[C@H](C)CC)c3n2)CC1 [Example 227, 2-[(1-acryloylpiperidin-4-yl)oxy]-N-[(2R)-butan-2-yl]-5H-pyrrolo[2,3-b]pyrazine-7-carboxamide] |
| 378 | 18 | 0.229 | 4.23 | C=CC(=O)N1CCC(Oc2cnc3[nH]cc(C(=O)N[C@@H](C)COC)c3n2)CC1 [Example 228, 2-[(1-acryloylpiperidin-4-yl)oxy]-N-[(2S)-1-methoxypropan-2-yl]-5H-pyrrolo[2,3-b]pyrazine-7-carboxamide] |
| 2390 | 60 | 0.582 | 5.93 | C=CC(=O)N1CCC(Oc2cnc3[nH]cc(C(=O)N[C@@H]4CCC[C@H]4F)c3n2)CC1 [Example 229, 2-[(1-acryloylpiperidin-4-yl)oxy]-N-[(1R,2R)-2-fluorocyclopentyl]-5H-pyrrolo[2,3-b]pyrazine-7-carboxamide] |
| 1710 | 34 | 0.305 | 5.85 | C=CC(=O)N1CCC(Oc2cnc3[nH]cc(C(=O)N[C@@H]4CCC[C@@H]4F)c3n2)CC1 [Example 230, 2-[(1-acryloylpiperidin-4-yl)oxy]-N-[(1R,2S)-2-fluorocyclopentyl]-5H-pyrrolo[2,3-b]pyrazine-7-carboxamide] |
| 819 | 42 | 0.301 | > 6 | C=CC(=O)N1CC[C@H](Nc2cnc3[nH]cc(C(=O)NCC4CCCC4)c3n2)[C@H](OC)C1 [Example 284, 2-{[(3R,4S)-1-acryloyl-3-methoxypiperidin-4-yl]amino}-N-(cyclopentylmethyl)-5H-pyrrolo[2,3-b]pyrazine-7-carboxamide] |
| 2160 | 57 | 0.376 | > 6 | C=CC(=O)N1CCN(c2cnc3[nH]cc(C(=O)NCC(C)C)c3n2)C[C@@H]1CC(C)C [Example 288, 2-[(3S)-4-acryloyl-3-(2-methylpropyl)piperazin-1-yl]-N-(2-methylpropyl)-5H-pyrrolo[2,3-b]pyrazine-7-carboxamide] |
